In ChEMBL document CHEMBL1140602, “A simple, yet highly accurate, QSAR model captures the complement inhibitory activity of compstatin” (Bioorg Med Chem, 2007):
Positions of bridges follow the written chain, without caps; N, C: chain ends. Residues, ends and D or L forms follow the SMILES beside them.

experiment: Inhibition of C3b activation relative to compstatin

| SMILES | logIC50 |
| --- | --- |
| CC[C@H](C)[C@H](N)C(=O)N[C@H]1CSSC[C@@H](C(=O)N[C@H](C(=O)O)[C@@H](C)O)NC(=O)[C@H](CCCNC(=N)N)NC(=O)[C@H](Cc2cnc[nH]2)NC(=O)[C@H](C)NC(=O)CNC(=O)[C@H](Cc2c[nH]c3ccccc23)NC(=O)[C@H](CC(=O)O)NC(=O)[C@H](CCC(N)=O)NC(=O)[C@H](C2Cc3ccccc3C2)NC(=O)[C@H](C(C)C)NC1=O | 1.55 |
| CC[C@H](C)[C@H](N)C(=O)N[C@H]1CSSC[C@@H](C(=O)N[C@H](C(=O)O)[C@@H](C)O)NC(=O)[C@H](CCCNC(=N)N)NC(=O)[C@H](Cc2cnc[nH]2)NC(=O)[C@H](C)NC(=O)CNC(=O)[C@H](Cc2c[nH]c3ccccc23)NC(=O)[C@H](CC(=O)O)NC(=O)[C@H](CCC(N)=O)NC(=O)[C@H](Cc2ccc3ccccc3c2)NC(=O)[C@H](C(C)C)NC1=O | 1.58 |
| CC[C@H](C)[C@H](N)C(=O)N[C@H]1CSSC[C@@H](C(=O)N[C@H](C(N)=O)[C@@H](C)O)NC(=O)[C@H](CCCNC(=N)N)NC(=O)[C@H](Cc2cnc[nH]2)NC(=O)[C@H](Cc2cnc[nH]2)NC(=O)CNC(=O)[C@H](Cc2c[nH]c3ccccc23)NC(=O)[C@H](CC(=O)O)NC(=O)[C@H](CCC(N)=O)NC(=O)[C@H](C(C)C)NC(=O)[C@H](C(C)C)NC1=O | 0 |
| CC[C@H](C)[C@H](NC(C)=O)C(=O)N[C@H]1CSSC[C@@H](C(=O)N[C@H](C(=O)O)[C@@H](C)O)NC(=O)[C@H](CCCNC(=N)N)NC(=O)[C@H](Cc2cnc[nH]2)NC(=O)[C@H](C)NC(=O)CNC(=O)[C@H](Cc2c[nH]c3ccccc23)NC(=O)[C@H](CC(=O)O)NC(=O)[C@H](CCC(N)=O)NC(=O)[C@@H](Cc2csc3ccccc23)NC(=O)[C@H](C(C)C)NC1=O | 1.83 |
| CC[C@H](C)[C@H](NC(C)=O)C(=O)N[C@H]1CSSC[C@@H](C(=O)N[C@H](C(=O)O)[C@@H](C)O)NC(=O)[C@H](CCCNC(=N)N)NC(=O)[C@H](Cc2cnc[nH]2)NC(=O)[C@H](C)NC(=O)CNC(=O)[C@H](Cc2c[nH]c3ccccc23)NC(=O)[C@H](CC(=O)O)NC(=O)[C@H](CCC(N)=O)NC(=O)[C@H](Cc2ccc(C(=O)c3ccccc3)cc2)NC(=O)[C@H](C(C)C)NC1=O | 1.69 |
| CC[C@H](C)[C@H](NC(C)=O)C(=O)N[C@H]1CSSC[C@@H](C(=O)N[C@H](C(=O)O)[C@@H](C)O)NC(=O)[C@H](CCCNC(=N)N)NC(=O)[C@H](Cc2cnc[nH]2)NC(=O)[C@H](C)NC(=O)CNC(=O)[C@H](Cc2c[nH]c3ccccc23)NC(=O)[C@H](CC(=O)O)NC(=O)[C@H](CCC(N)=O)NC(=O)[C@H](Cc2cccc3ccccc23)NC(=O)[C@H](C(C)C)NC1=O | 1.47 |
| CC[C@H](C)[C@H](NC(C)=O)C(=O)N[C@H]1CSSC[C@@H](C(=O)N[C@H](C(N)=O)[C@@H](C)O)NC(=O)[C@H](CCCNC(=N)N)NC(=O)[C@H](Cc2cnc[nH]2)NC(=O)[C@H](C)NC(=O)CNC(=O)[C@H](Cc2c[nH]c3cc(F)ccc23)NC(=O)[C@H](CC(=O)O)NC(=O)[C@H](CCC(N)=O)NC(=O)[C@H](Cc2c[nH]c3cc(F)ccc23)NC(=O)[C@H](C(C)C)NC1=O | 2.1 |
| CC[C@H](C)[C@H](NC(C)=O)C(=O)N[C@H]1CSSC[C@@H](C(=O)N[C@H](C(N)=O)[C@@H](C)O)NC(=O)[C@H](CCCNC(=N)N)NC(=O)[C@H](Cc2cnc[nH]2)NC(=O)[C@H](C)NC(=O)CNC(=O)[C@H](Cc2c[nH]c3ccc(F)cc23)NC(=O)[C@H](CC(=O)O)NC(=O)[C@H](CCC(N)=O)NC(=O)[C@H](Cc2c[nH]c3ccccc23)NC(=O)[C@H](C(C)C)NC1=O | 2.08 |
| CC[C@H](C)[C@H](NC(C)=O)C(=O)N[C@H]1CSSC[C@@H](C(=O)N[C@H](C(N)=O)[C@@H](C)O)NC(=O)[C@H](CCCNC(=N)N)NC(=O)[C@H](Cc2cnc[nH]2)NC(=O)[C@H](C)NC(=O)CNC(=O)[C@H](Cc2c[nH]c3ccc(F)cc23)NC(=O)[C@H](CC(=O)O)NC(=O)[C@H](CCC(N)=O)NC(=O)[C@H](Cc2cn(C)c3ccccc23)NC(=O)[C@H](C(C)C)NC1=O | 2.42 |
| CC[C@H](C)[C@H](NC(C)=O)C(=O)N[C@H]1CSSC[C@@H](C(=O)N[C@H](C(N)=O)[C@@H](C)O)NC(=O)[C@H](CCCNC(=N)N)NC(=O)[C@H](Cc2cnc[nH]2)NC(=O)[C@H](C)NC(=O)CNC(=O)[C@H](Cc2c[nH]c3ccc(O)cc23)NC(=O)[C@H](CC(=O)O)NC(=O)[C@H](CCC(N)=O)NC(=O)[C@H](Cc2c[nH]c3ccc(O)cc23)NC(=O)[C@H](C(C)C)NC1=O | 0.211 |
| CC[C@H](C)[C@H](NC(C)=O)C(=O)N[C@H]1CSSC[C@@H](C(=O)N[C@H](C(N)=O)[C@@H](C)O)NC(=O)[C@H](CCCNC(=N)N)NC(=O)[C@H](Cc2cnc[nH]2)NC(=O)[C@H](C)NC(=O)CNC(=O)[C@H](Cc2c[nH]c3ccccc23)NC(=O)[C@H](CC(=O)O)NC(=O)[C@H](CCC(N)=O)NC(=O)[C@H](C2Cc3ccccc3C2)NC(=O)[C@H](C(C)C)NC1=O | 1.58 |
| CC[C@H](C)[C@H](NC(C)=O)C(=O)N[C@H]1CSSC[C@@H](C(=O)N[C@H](C(N)=O)[C@@H](C)O)NC(=O)[C@H](CCCNC(=N)N)NC(=O)[C@H](Cc2cnc[nH]2)NC(=O)[C@H](C)NC(=O)CNC(=O)[C@H](Cc2c[nH]c3ccccc23)NC(=O)[C@H](CC(=O)O)NC(=O)[C@H](CCC(N)=O)NC(=O)[C@H](CC2CCCCC2)NC(=O)[C@H](C(C)C)NC1=O | 0.056 |
| CC[C@H](C)[C@H](NC(C)=O)C(=O)N[C@H]1CSSC[C@@H](C(=O)N[C@H](C(N)=O)[C@@H](C)O)NC(=O)[C@H](CCCNC(=N)N)NC(=O)[C@H](Cc2cnc[nH]2)NC(=O)[C@H](C)NC(=O)CNC(=O)[C@H](Cc2c[nH]c3ccccc23)NC(=O)[C@H](CC(=O)O)NC(=O)[C@H](CCC(N)=O)NC(=O)[C@H](Cc2c[nH]c3ccc(C)cc23)NC(=O)[C@H](C(C)C)NC1=O | 1.79 |
| CC[C@H](C)[C@H](NC(C)=O)C(=O)N[C@H]1CSSC[C@@H](C(=O)N[C@H](C(N)=O)[C@@H](C)O)NC(=O)[C@H](CCCNC(=N)N)NC(=O)[C@H](Cc2cnc[nH]2)NC(=O)[C@H](C)NC(=O)CNC(=O)[C@H](Cc2c[nH]c3ccccc23)NC(=O)[C@H](CC(=O)O)NC(=O)[C@H](CCC(N)=O)NC(=O)[C@H](Cc2c[nH]c3ccccc23)NC(=O)[C@H](C(C)C)NC1=O | 1.65 |
| CC[C@H](C)[C@H](NC(C)=O)C(=O)N[C@H]1CSSC[C@@H](C(=O)N[C@H](C(N)=O)[C@@H](C)O)NC(=O)[C@H](CCCNC(=N)N)NC(=O)[C@H](Cc2cnc[nH]2)NC(=O)[C@H](C)NC(=O)CNC(=O)[C@H](Cc2c[nH]c3ccccc23)NC(=O)[C@H](CC(=O)O)NC(=O)[C@H](CCC(N)=O)NC(=O)[C@H](Cc2ccc(C(=O)c3ccccc3)cc2)NC(=O)[C@H](C(C)C)NC1=O | 1.95 |
| CC[C@H](C)[C@H](NC(C)=O)C(=O)N[C@H]1CSSC[C@@H](C(=O)N[C@H](C(N)=O)[C@@H](C)O)NC(=O)[C@H](CCCNC(=N)N)NC(=O)[C@H](Cc2cnc[nH]2)NC(=O)[C@H](C)NC(=O)CNC(=O)[C@H](Cc2c[nH]c3ccccc23)NC(=O)[C@H](CC(=O)O)NC(=O)[C@H](CCC(N)=O)NC(=O)[C@H](Cc2ccc(O)cc2)NC(=O)[C@H](C(C)C)NC1=O | 1.17 |
| CC[C@H](C)[C@H](NC(C)=O)C(=O)N[C@H]1CSSC[C@@H](C(=O)N[C@H](C(N)=O)[C@@H](C)O)NC(=O)[C@H](CCCNC(=N)N)NC(=O)[C@H](Cc2cnc[nH]2)NC(=O)[C@H](C)NC(=O)CNC(=O)[C@H](Cc2c[nH]c3ccccc23)NC(=O)[C@H](CC(=O)O)NC(=O)[C@H](CCC(N)=O)NC(=O)[C@H](Cc2cccc3ccccc23)NC(=O)[C@H](C(C)C)NC1=O | 1.99 |
| CC[C@H](C)[C@H](NC(C)=O)C(=O)N[C@H]1CSSC[C@@H](C(=O)N[C@H](C(N)=O)[C@@H](C)O)NC(=O)[C@H](CCCNC(=N)N)NC(=O)[C@H](Cc2cnc[nH]2)NC(=O)[C@H](C)NC(=O)CNC(=O)[C@H](Cc2c[nH]c3ccccc23)NC(=O)[C@H](CC(=O)O)NC(=O)[C@H](CCC(N)=O)NC(=O)[C@H](Cc2cn(C)c3ccccc23)NC(=O)[C@H](C(C)C)NC1=O | 2.42 |
| CC[C@H](C)[C@H](NC(C)=O)C(=O)N[C@H]1CSSC[C@@H](C(=O)N[C@H](C(N)=O)[C@@H](C)O)NC(=O)[C@H](CCCNC(=N)N)NC(=O)[C@H](Cc2cnc[nH]2)NC(=O)[C@H](C)NC(=O)CNC(=O)[C@H](Cc2c[nH]c3ccccc23)NC(=O)[C@H](CC(=O)O)NC(=O)[C@H](CCC(N)=O)NC(=O)[C@H](Cc2csc3ccccc23)NC(=O)[C@H](C(C)C)NC1=O | 1.83 |
| CC[C@H](C)[C@H](NC(C)=O)C(=O)N[C@H]1CSSC[C@@H](C(=O)N[C@H](C(N)=O)[C@@H](C)O)NC(=O)[C@H](CCCNC(=N)N)NC(=O)[C@H](Cc2cnc[nH]2)NC(=O)[C@H](C)NC(=O)CNC(=O)[C@H](Cc2c[nH]c3ncccc23)NC(=O)[C@H](CC(=O)O)NC(=O)[C@H](CCC(N)=O)NC(=O)[C@H](Cc2c[nH]c3ncccc23)NC(=O)[C@H](C(C)C)NC1=O | -0.358 |
| CC[C@H](C)[C@H](NC(C)=O)C(=O)N[C@H]1CSSC[C@@H](C(=O)N[C@H](C(N)=O)[C@@H](C)O)NC(=O)[C@H](CCCNC(=N)N)NC(=O)[C@H](Cc2cnc[nH]2)NC(=O)[C@H](Cc2cnc[nH]2)NC(=O)CNC(=O)[C@H](Cc2c[nH]c3ccccc23)NC(=O)[C@H](CC(=O)O)NC(=O)[C@H](CCC(N)=O)NC(=O)[C@H](C(C)C)NC(=O)[C@H](C(C)C)NC1=O | 0.477 |
| CC[C@H](C)[C@H](NC(C)=O)C(=O)N[C@H]1CSSC[C@@H](C(=O)N[C@H](C(N)=O)[C@H](C)O)NC(=O)[C@H](CCCNC(=N)N)NC(=O)[C@H](Cc2cnc[nH]2)NC(=O)[C@H](C)NC(=O)CNC(=O)[C@H](Cc2c[nH]c3ccccc23)NC(=O)[C@H](CC(=O)O)NC(=O)[C@H](CCC(N)=O)NC(=O)[C@H](Cc2c[nH]c3ccc(F)cc23)NC(=O)[C@H](C(C)C)NC1=O | 1.49 |
| CC[C@H](C)[C@H](NC(C)=O)C(=O)N[C@H]1CSSC[C@@H](C(=O)N[C@H](C(N)=O)[C@H](C)O)NC(=O)[C@H](CCCNC(=N)N)NC(=O)[C@H](Cc2cnc[nH]2)NC(=O)[C@H](Cc2cnc[nH]2)NC(=O)CNC(=O)[C@H](Cc2c[nH]c3ccccc23)NC(=O)[C@H](CC(=O)O)NC(=O)[C@H](CCC(N)=O)NC(=O)[C@H](Cc2c[nH]c3ccccc23)NC(=O)[C@H](C(C)C)NC1=O | 1.39 |
| CC[C@H](C)[C@H](NC(C)=O)C(=O)N[C@H]1CSSC[C@@H](C(=O)N[C@H](C(N)=O)[C@@H](C)O)NC(=O)[C@H](CCCNC(=N)N)NC(=O)[C@H](Cc2cnc[nH]2)NC(=O)[C@H](Cc2cnc[nH]2)NC(=O)CNC(=O)[C@H](Cc2c[nH]c3ccccc23)NC(=O)[C@H](CC(=O)O)NC(=O)[C@H](CC(N)=O)NC(=O)[C@H](C(C)C)NC(=O)[C@H](CC(C)C)NC1=O (Ac-ICLVNDWGHHRCT-NH2; disulfide 2-12) | 0.16 |
